# Test results published in publication PMC9320886, “Daily Intraperitoneal Administration of Rosiglitazone Does Not Improve Lung Function or Alveolarization in Preterm Rabbits Exposed to Hyperoxia” (Pharmaceutics, 2022).
# Read-outs that look alike come from different tables or passages of the source.
# Tests used:
# [1] = test system: preterm rabbits exposed to hyperoxia; test: pulmonary efficacy, daily intraperitoneal 1 mg/kg, preterm rabbits exposed to hyperoxia; assay type: in vivo, rabbit; conditions: daily i.p. 1 mg/kg
# Experimental: A total of 31 preterm rabbits with a GA of 28 days delivered from 4 does were included in the efficacy study. After delivery, newborn pups were put in hyperoxia (95% oxygen) for 1 h. Surviving pups were exposed to hyperoxia (95% O2) for 7 days and randomized to receiving daily (from postnatal day (PND) 0 to PND 6) intraperitoneal injections of RGZ at 1 mg/kg (n = 15) or the vehicle (n = 16).
# Pups were placed on a sterilized soft bedding and remained in the incubator except for the feeding and treatments. Pups were fed 4 h after delivery on PND 0 with a milk replacer (Day One®, Protein 30%, Fat 50%; FoxValley, Aurora, IL, USA). Probiotics, electrolytes, and vitamins are added during the first 7 days (Bio-Lapis®; Probiotics International Ltd., Somerser, UK) and immunoglobulins during the first 2 days (Col-o-Cat®, SanoBest, Hertogenbosch, Netherlands). The standard feeding protocol consisted of incrementally increasing the amounts of milk replacer (PND 0: 40 mg/kg, PND 1: 50 mg/kg/day, PND 2: 75 mg/kg, PND 3–6: 100 mg/kg/day). On Day 2, vitamin K1 was administered intramuscularly (0.002 mg/kg BW, Konakion pediatrique®; Roche, Basel, Switzerland).
# At Day 7, invasive lung function testing was performed using the forced oscillation technique with the flexiVent^TM apparatus (SCIREQ, Montréal, Canada). […]
# The following parameters were measured: total inspiratory capacity, resistance of the respiratory system (Rrs), lung tissue damping (G), lung tissue elastance (H), and static compliance (Cst). […] The average of three measurements was calculated and used in the analysis. […]
# The left lung and the right lungs were embedded in paraffin, cut, and stained with hematoxylin and eosin (H&E) following standard histology protocols. The radial alveolar count (RAC) was performed by an expert pathologist blinded to the experimental design by drawing a perpendicular line from the lumen of the terminal bronchiole to the nearest connective tissue septum or pleural margin and the number of saccules or alveoli crossed by this line was counted as previously described. […]
# [2] = test system: preterm rabbits exposed to hyperoxia; test: pulmonary efficacy, daily intraperitoneal 10 mg/kg, preterm rabbits exposed to hyperoxia; assay type: in vivo, rabbit; conditions: daily i.p. 10 mg/kg
# Experimental: At Day 7, invasive lung function testing was performed using the forced oscillation technique with the flexiVent^TM apparatus (SCIREQ, Montréal, Canada). Pups were anesthetized with intramuscular ketamine (35 mg/kg) and xylazine (6 mg/kg) before a tracheostomy was performed, and an 18-gauge metal needle was inserted in the trachea and tied. Pups were connected to the volume-controlled mechanical ventilation of the flexiVent^TM (SCIREQ, tidal volume 10 mL/kg, frequency of 120 breaths/min, PEEP of 3 cmH2O). All pups were euthanized with a pentothal sodium overdose.
# The following parameters were measured: total inspiratory capacity, resistance of the respiratory system (Rrs), lung tissue damping (G), lung tissue elastance (H), and static compliance (Cst). Three consistent measurements were obtained, with a coefficient of determination >0.95 as the limit to accept the measurement. The average of three measurements was calculated and used in the analysis.
# At necropsy, lungs were removed en bloc and a 20-gauge catheter was secured inside the trachea. Lungs were fixed with 10% buffered formalin (Sigma-Aldrich) for at least 4 h under constant pressure (25 cmH2O) using a custom-made fixation device to ensure homogenous fixation pressures. After removal from pressure fixation, the lungs were first left in formalin for at least 24 h and then transferred to 70% ethanol.
# The left lung and the right lungs were embedded in paraffin, cut, and stained with hematoxylin and eosin (H&E) following standard histology protocols. The radial alveolar count (RAC) was performed by an expert pathologist blinded to the experimental design by drawing a perpendicular line from the lumen of the terminal bronchiole to the nearest connective tissue septum or pleural margin and the number of saccules or alveoli crossed by this line was counted as previously described. In total, 20 measurements were performed for each lung pair.
# An independent experimental session investigated the efficacy of RGZ at a higher dose (10 mg/kg). In total, 36 preterm rabbits with a GA of 28 days delivered from 4 does were randomized to either the control group (n = 18) or the RGZ 10 mg/kg group (n = 18 per group). Hyperoxia exposure, RGZ administration, animal care and feeding procedures, lung function testing, RAC, and sample collection were performed as described above.
# [3] = test system: preterm rabbits exposed to hyperoxia; test: quantification of blood lipid levels; assay type: in vivo, rabbit
# Experimental: Whole blood samples from pups in the RGZ (1 and 10 mg/kg groups) and control groups (n = 6 per group) were obtained though cardiac puncture. Briefly, a 22G needle was inserted into the left ventricle and approximately 1.5 mL of whole blood were collected in K2-EDTA tubes and stored on ice. Within 60 min after blood draw, samples were centrifuged at 1500× g for 15 min and the […] was immediately stored at −80 °C. At the day of quantification, samples were gently thawed overnight at 4 °C and the level of triglycerides (TG), total cholesterol, high-density cholesterol (HDL), and non-HDL were determined using a Cobas 8000 modular analyzer (Roche).
# PPARγ = test: target engagement (TE%) evaluation from unbound plasma concentration and EC50
# Experimental: In a subsequent experimental session, we investigated the pulmonary outcomes of a higher intraperitoneal RGZ dose. To define the RGZ dose, a target engagement (TE%) evaluation was performed based on the unbound plasma and EC50 values for RGZ previously determined in vitro. […] TE% at each time point was calculated according to the following formula.
# [4] = pharmacokinetic profiling in preterm rabbits; assay type: in vivo, rabbit
# [5] = set-up: method as in PMID 19484746; conditions: PND 13 mice, chow of nursing mice with 2.5–10 mg/kg of RGZ; cited from earlier work
# [6] = set-up: method as in PMID 16617452; conditions: newborn rats; cited from earlier work
# newborn rats = test system: newborn rats; set-up: method as in PMID 19262292; conditions: daily i.p. doses as low as 0.3 mg/kg; cited from earlier work
# [7] = test system: premature rabbit pups with intraventricular hemorrhage; set-up: method as in PMID 34462350; conditions: twice-daily 0.1 mg/kg; cited from earlier work
# [8] = test system: patients with type 2 diabetes; conditions: cited from earlier work
# [9] = daily 1 mg/kg, PND 7, vs vehicle, p < 0.01
# [10] = rabbit, inhaled or intranasal, lung, intratracheal 1 mg/kg
smiles,measurement,setting,value
"CN(CCOc1ccc(CC2SC(=O)NC2=O)cc1)c1ccccn1 (stereo not shown) [RGZ, rosiglitazone]",weight gain,[1]; PND 7,43.46 ± 4.84 g
same,alveolarization (RAC),"[1]; PND 7, vs vehicle",neither improved
same,"lung function (inspiratory capacity, G, H and Cst)","[1]; PND 7, vs vehicle",neither improved
same,plasma appearance,[2],"white, dense appearance"
same,RAC,"[2]; PND 7, vs vehicle",no difference between groups
same,inspiratory capacity,"[2]; PND 7, vs vehicle, p < 0.01",significantly lower
same,lung compliance (Cst),"[2]; PND 7, vs vehicle, p < 0.01",significantly lower
same,mortality,[2]; vs vehicle,similar
same,serum non-HDL,[3]; [9],significantly increased
same,serum total cholesterol,[3]; [9],significantly increased
same,serum triglycerides,"[3]; daily 1 mg/kg, PND 7, vs vehicle, p < 0.05",significantly increased
same,serum lipids,"[3]; daily 10 mg/kg, PND 7, p < 0.0001 for all lipids",aberrant modulation
same,target engagement (TE%),PPARγ,40–60%
same,target engagement (TE%),PPARγ; linear scaling model to intraperitoneal 10 mg/kg,> 90%
same,target engagement (TE%),PPARγ; listed as rosiglitazone,50%
same,detectability in plasma and lung,[4]; intratracheal or intraperitoneal 1 mg/kg,detectable levels in both compartments up to 24 h
same,time of peak,"[4]; plasma and lung tissue, irrespective of the administration method, 1 mg/kg",0.25 h
same,Cmax,[4]; [10],1070 ng/g
same,Tmax,[4]; [10],15 min
same,half-life,"[4]; rabbit, inhaled or intranasal, plasma, intratracheal 1 mg/kg",900 min
same,Tmax,"[4]; rabbit, ip, lung, intraperitoneal 1 mg/kg",15 min
same,AUC(0-t),"[4]; rabbit, ip, plasma, intraperitoneal 1 mg/kg",29500 ng·h/mL
same,Kp,"[4]; rabbit, lung and plasma, inhaled or intranasal, intratracheal 1 mg/kg, read-out: AUCLung/AUCPlasma",0.7
same,concentration at 24 h,"[4]; rabbit, plasma and lung, ip, 24 h after intraperitoneal administration, 1 mg/kg, read-out: levels in plasma and lung",> 500 ng/mL
same,RGZ in the lung tissue,[5],90.7 pg/g
same,plasma levels reported to protect the lungs from hyperoxia,[6],0.35 µg/mL
same,alveolarization,newborn rats,enhanced
same,"surfactant synthesis (lamellar body count, SP-B and SP-C expression)",newborn rats,significantly promoted
same,myelination and neurological recovery,[7],improved
same,"plasma triglycerides, large- and medium-sized lipoproteins, low- and high-density cholesterol",[8]; adult patients with type 2 diabetes and dyslipidemia,increases
same,risk of heart failure and cardiovascular mortality,[8]; diabetic patients,increases the risk
